Patent US20230010258A1, “COMPOSITION FOR PREVENTING OR INHIBITING AXONAL DEGENERATION” (CHECKMATE THERAPEUTICS INC., priority 2019, published 2023)
Counter-ions that a name gives are not always drawn.

Key:
[1] = tested on: phosphorylation of JNK protein, a representative sub-regulatory marker of SARM1; details: MKN1 cells, Western blot, Hsp90 as housekeeping protein
Method: Accordingly, in order to evaluate the axonal degeneration inhibitory effects of the compounds according to the present invention, the abilities of these compounds to inhibit SARM1 enzyme were analyzed. Specifically, whether phosphorylation of JNK protein, a representative sub-regulatory marker of SARM1, decreased, was evaluated by Western blot assay. A method for preparing the protein used in the Western blot assay is as follows. […] The entire cell lysate was fractionated using a centrifuge, and then only the solution containing the protein was extracted. The extracted protein was quantified by the Bradford method. The protein of the same concentration obtained through quantification was separated by SDS-polyacrylamide gel electrophoresis, and then transferred to a PVDF membrane. […] For visualization, an enhanced chemiluminescence system was used. Western blot assay was performed using JNK protein, a representative marker whose phosphorylation is regulated by SARM1, and the housekeeping protein Hsp90 was used for quantitative comparison of expression.

[2] = tested on: retinal ganglion cell axons; assay: Tadpole optic nerve axotomy model, axon survival score (Experimental Example 4); format: in vivo, Xenopus tropicalis; details: axotomy at stage 43, evaluated 48 hours after axotomy, control DMSO
Method: In order to verify the axon protective effect of the compound according to the present invention in the tadpole optic nerve axotomy model, an experiment was conducted in the same manner as in Experimental Example 3. Specifically, GFP-expressing DNA was delivered into one retina of a Xenopus tropicalis tadpole at stage 27 (before retinal development) by electroporation. At stage 43 (the time when the connection between the retina and the visual center of the brain is finished), axons of the epectroporated retina were axotomized, and the tissue was fixed at 24-hour intervals, followed by extraction of the brain. Next, the ventral midline of the brain was excised and unfolded, and then the GFP signal in the contra-lateral brain hemisphere was imaged with a confocal microscope (LSM700, Carl Zeiss, 20×, z-step 3 μm). Thereby, it was possible to observe retinal ganglion cell axons located along the optic tract extending from the optic chiasm to the optic tectum. […] Axonal degeneration could be quantified because the continuous GFP signal disappeared along the optic tract over time after axotomy. […] The degree of inhibition of axonal degeneration by the drug was evaluated 48 hours after axotomy. […] The percentage of healthy axons in the drug group relative to the control group taken as 100% was calculated and used as the axon survival score (0 to 100%).

axonal degeneration = details: cited from earlier work
optic nerve axons = assay: Tadpole optic nerve axotomy model, delay in Wallerian degeneration (Experimental Example 3); format: in vivo, Xenopus tropicalis; details: optic nerve axotomized at stage 41, 48 hours after treatment
Method: In order to verify the axon protective effect of the compound according to the present invention in the tadpole optic nerve axotomy model, an experiment was conducted according to the design shown in FIG. 13. Specifically, an in vitro fertilized Xenopus tropicalis (African frog) embryo (Nasco, Fort Atkinson, Wis. 53538, USA) is cultured to stage 27, and then a plasmid DNA expressing Enhanced Green Fluorescence Protein (EGFP) is delivered into the retinal progenitor cells of one eye by an electroporation technique. After culturing to stage 41, the axons of the retinal ganglion cells expressing the green fluorescent protein reach the optic tectum of the contralateral brain hemisphere, and this axon bundle is referred to as the optic nerve. When the optic nerve is axotomized at stage 41, Wallerian degeneration occurs in which axons distal from the cell body degenerate by fragmentation over about 72 hours. […] Wallerian degeneration of the Xenopus optic nerve occur in a stereotypical pattern at 24 hours, 48 hours and 72 hours after axotomy, and the degree of delay in Wallerian degeneration was quantified as percentage by comparing the degree of Wallerian degeneration in the drug-treated group with this pattern.

## O=C(NCc1ccc(-c2nc3ccc(Cl)cc3o2)cc1)c1cccnc1 [A4266, N-(4-(6-chlorobenzo[d]oxazol-2-yl)benzyl)nicotinamide]
[1]
  JNK phosphorylation: had the effect of inhibiting JNK phosphorylation

## CS(=O)(=O)c1ccc2oc(-c3ccc(CNC(=O)c4cccnc4)cc3)nc2c1 [A4510H, N-(4-(5-(methylsulfonyl)benzo[d]oxazol-2-yl)benzyl)nicotinamide hydrochloride]
[2]
  axon protective effect (axon survival score): exhibited an excellent axon protective effect

## O=C(/C=C/c1cccnc1)NCCCCC1CCN(C(=O)c2ccccc2)CC1 [FK866]
Axonal degeneration
  axonal degeneration: effect of partially inhibiting axonal degeneration

## Nc1ccc(/C=C/C(=O)NCc2cc3cc(-c4ccc(C(=O)N5CCC(F)(F)CC5)cc4)cc(-c4ccc(F)cc4)c3o2)cn1 [KPT9274]
Optic nerve axons
  axon protective effect (degree of delay in Wallerian degeneration): did not exhibit a significant axon protective effect

## CC(C)(O)CS(=O)(=O)Nc1ccc2c(c1)CCN(C(=O)COc1cccnc1)C2 [LSN 3154567]
Optic nerve axons
  axon protective effect (degree of delay in Wallerian degeneration): did not exhibit a significant axon protective effect
